Assay results reported in ChEMBL document CHEMBL1201862, “PubChem BioAssay data set” (2004).
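Where inhibition never reached the appropriate level, the endpoint shown equals the highest concentration tested. Otherwise, values were interpolated linearly from a five-concentration, 48-hour dose response in 96-well plates. GI50 = concentration required for 50% inhibition of growth.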 Active and inactive are the calls of the source. Cut-off read from the data, not from the text of the source: active = GI50 up to about 1.1 µM and inactive = higher.

Assays:
Experiment in all cases: DTP human tumour cell line panel, 48 h
[1] = test system: HOP-92
[2] = test system: SN12C
[3] = test system: CAKI-1
[4] = test system: RXF 393
[5] = test system: NCI-H460
[6] = test system: K562
[7] = test system: MDA-MB-435
[8] = test system: DU-145
[9] = test system: NCI/ADR-RES
[10] = test system: TK-10
[11] = test system: UO-31
[12] = test system: SK-OV-3
[13] = test system: OVCAR-5
[14] = test system: Malme-3M
[15] = test system: BT-549
[16] = test system: HOP-62
[17] = test system: M14
[18] = test system: MOLT-4
[19] = test system: A498
[20] = test system: HCC 2998
[21] = test system: UACC-62
[22] = test system: IGROV-1
[23] = test system: NCI-H226
[24] = test system: RPMI-8226
[25] = test system: OVCAR-3
[26] = test system: PC-3
[27] = test system: SNB-19
[28] = test system: A549
[29] = test system: KM12
[30] = test system: NCI-H23
[31] = test system: EKVX
[32] = test system: SK-MEL-5
[33] = test system: SF-295
[34] = test system: MCF7
[35] = test system: 786-0
[36] = test system: T47D
[37] = test system: HCT-15
[38] = test system: LOX IMVI
[39] = test system: HT-29
[40] = test system: OVCAR-8
[41] = test system: COLO 205
[42] = test system: MDA-MB-231
[43] = test system: NCI-H522
[44] = test system: SF-539
[45] = test system: MDA-N
[46] = test system: U-251
[47] = test system: Hs-578T
[48] = test system: CCRF-CEM
[49] = test system: SW-620
[50] = test system: SNB-75
[51] = test system: SK-MEL-28
[52] = test system: OVCAR-4
[53] = test system: SK-MEL-2
[54] = test system: UACC-257
[55] = test system: HL-60
[56] = test system: HCT-116
[57] = test system: ACHN
[58] = test system: SF-268

Cc1cn([C@@H]2O[C@H](CO[Si](C)(C)C(C)(C)C)[C@]3(O[C@H]3C(=O)NO)[C@H]2O[Si](C)(C)C(C)(C)C)c(=O)[nH]c1=O
GI50 [1]: 1.94 µM (inactive)
GI50 [2]: 1.61 µM (inactive)
GI50 [3]: 2.07 µM (inactive)
GI50 [4]: 1.73 µM (inactive)
GI50 [5]: 1.69 µM (inactive)
GI50 [6]: 2.47 µM (inactive)
GI50 [7]: 2.07 µM (inactive)
GI50 [8]: 1.89 µM (inactive)
GI50 [9]: 5.7 µM (inactive)
GI50 [10]: 2.29 µM (inactive)
GI50 [11]: 1.74 µM (inactive)
GI50 [12]: 1.87 µM (inactive)
GI50 [13]: 1.78 µM (inactive)
GI50 [14]: 2.14 µM (inactive)
GI50 [15]: 1.66 µM (inactive)
GI50 [16]: 1.76 µM (inactive)
GI50 [17]: 1.85 µM (inactive)
GI50 [18]: 1.73 µM (inactive)
GI50 [19]: 1.9 µM (inactive)
GI50 [20]: 1.61 µM (inactive)
GI50 [21]: 1.82 µM (inactive)
GI50 [22]: 1.71 µM (inactive)
GI50 [23]: 1.94 µM (inactive)
GI50 [24]: 1.18 µM (inactive)
GI50 [25]: 1.61 µM (inactive)
GI50 [26]: 2.26 µM (inactive)
GI50 [27]: 1.66 µM (inactive)
GI50 [28]: 1.82 µM (inactive)
GI50 [29]: 1.79 µM (inactive)
GI50 [30]: 1.91 µM (inactive)
GI50 [31]: 1.84 µM (inactive)
GI50 [32]: 1.92 µM (inactive)
GI50 [33]: 1.77 µM (inactive)
GI50 [34]: 1.71 µM (inactive)
GI50 [35]: 1.54 µM (inactive)
GI50 [36]: 1.66 µM (inactive)
GI50 [37]: 1.87 µM
GI50 [38]: 1.76 µM (inactive)
GI50 [39]: 1.53 µM (inactive)
GI50 [40]: 1.79 µM (inactive)
GI50 [41]: 1.76 µM (inactive)
GI50 [42]: 2.09 µM (inactive)
GI50 [43]: 1.52 µM (inactive)
GI50 [44]: 1.5 µM (inactive)
GI50 [45]: 1.58 µM (inactive)
GI50 [46]: 1.7 µM (inactive)
GI50 [47]: 1.92 µM (inactive)
GI50 [48]: 0.634 µM (active)
GI50 [49]: 1.91 µM (inactive)
GI50 [50]: 1.71 µM (inactive)
GI50 [51]: 1.76 µM (inactive)
GI50 [52]: 1.75 µM (inactive)
GI50 [53]: 2.01 µM (inactive)
GI50 [54]: 2.59 µM (inactive)
GI50 [55]: 1.61 µM (inactive)
GI50 [56]: 1.52 µM (inactive)
GI50 [57]: 1.7 µM (inactive)
GI50 [58]: 1.62 µM (inactive)

OC(Cc1cc(CC(O)(C(F)(F)F)C(F)(F)F)nc(CC(O)(C(F)(F)F)C(F)(F)F)c1)(C(F)(F)F)C(F)(F)F
GI50 [1]: 0.541 µM (active)
GI50 [2]: 2.2 µM (inactive)
GI50 [3]: 0.321 µM (active)
GI50 [4]: 2.18 µM (inactive)
GI50 [5]: 0.358 µM (active)
GI50 [6]: > 10 µM (inactive)
GI50 [7]: 2.39 µM (inactive)
GI50 [8]: 1.91 µM (inactive)
GI50 [9]: 1.66 µM (inactive)
GI50 [10]: 3.99 µM (inactive)
GI50 [12]: 3.96 µM (inactive)
GI50 [13]: 3.43 µM (inactive)
GI50 [14]: 2.59 µM (inactive)
GI50 [15]: 2.46 µM (inactive)
GI50 [16]: 1.73 µM (inactive)
GI50 [17]: 2.43 µM (inactive)
GI50 [18]: 3.85 µM (inactive)
GI50 [19]: 1.32 µM (inactive)
GI50 [20]: 1.83 µM (inactive)
GI50 [21]: 0.337 µM (active)
GI50 [22]: 0.764 µM (active)
GI50 [23]: 2.75 µM (inactive)
GI50 [24]: > 10 µM (inactive)
GI50 [25]: 0.49 µM (active)
GI50 [26]: 0.323 µM (active)
GI50 [27]: 0.726 µM (active)
GI50 [28]: 1.4 µM (inactive)
GI50 [29]: 0.482 µM (active)
GI50 [30]: 0.475 µM (active)
GI50 [31]: 2.07 µM (inactive)
GI50 [32]: 1.51 µM (inactive)
GI50 [33]: 0.509 µM (active)
GI50 [34]: 0.826 µM (active)
GI50 [35]: 1.35 µM (inactive)
GI50 [36]: 0.755 µM (active)
GI50 [37]: 0.767 µM
GI50 [38]: 0.39 µM (active)
GI50 [39]: 1.63 µM (inactive)
GI50 [40]: 1.33 µM (inactive)
GI50 [41]: 0.918 µM (active)
GI50 [42]: 1.92 µM (inactive)
GI50 [43]: 3.06 µM (inactive)
GI50 [44]: 1.69 µM (inactive)
GI50 [45]: 1.45 µM (inactive)
GI50 [46]: 1 µM (active)
GI50 [47]: 1.03 µM (active)
GI50 [48]: > 10 µM (inactive)
GI50 [49]: 0.574 µM (active)
GI50 [50]: 1.92 µM (inactive)
GI50 [51]: 1.98 µM (inactive)
GI50 [52]: 0.851 µM (active)
GI50 [53]: 2.02 µM (inactive)
GI50 [54]: 2.05 µM (inactive)
GI50 [55]: > 10 µM (inactive)
GI50 [56]: 0.869 µM (active)
GI50 [57]: 0.681 µM (active)
GI50 [58]: 1.88 µM (inactive)
